# Source: patent US20140248252A1, “New Salt And Medical Use” (Pfizer Limited, priority 2011, published 2014)
# Assays:
# [1] = system: uric acid in blood; assay: Single dose study: uric acid in blood of healthy subjects (colorimetric assay kit); type: in vivo, human; settings: fasted
# Experimental: (§1) Uric acid measurements were performed using a commercial colorimetric assay kit (Beckman Coulter).
# Single doses of 4-[2-(5-amino-1H-pyrazol-4-yl)-4-chlorophenoxy]-5-chloro-2-fluoro-N-(1,3-thiazol-4-yl)benzenesulfonamide SDD (‘SDD’) dispersion for oral administration, ranging from 10 mg to 2400 mg, were investigated. In addition, single doses of 4-[2-(5-amino-1H-pyrazol-4-yl)-4-chlorophenoxy]-5-chloro-2-fluoro-N-(1,3-thiazol-4-yl)benzenesulfonamide tosylate (‘TS’) dispersion for oral administration, ranging from 200 mg to 1000 mg, were also investigated.
# The following doses were investigated and all doses were given in the fasted state with the exception of 200 mg and 1000 mg SDD dispersions, which were given in both the fasted state and after a high-fat meal (‘fed’).
# A total of 61 subjects (all male) participated and all received at least one dose of SDD or TS dispersion for oral administration.
# Mean data of uric acid levels per dose group are given as follows: • SDD fasted: Table 5 • SDD fed and fasted Table 6 • TS Table 7
# [2] = system: uric acid in urine; assay: Multiple dose study (TS, 14 days): fraction of uric acid excreted in urine; type: in vivo, human; settings: day 10
# [3] = Aqueous solubility of the tosylate salt; type: physicochemical
# [4] = Stability of the tosylate salt versus free base and other salts; type: physicochemical
# [5] = system: uric acid in blood; assay: Multiple dose study (TS, 14 days): uric acid in blood of healthy and elderly subjects; type: in vivo, human
# Experimental: as §1
# (§2) Multiple oral doses of 4-[2-(5-amino-1H-pyrazol-4-yl)-4-chlorophenoxy]-5-chloro-2-fluoro-N-(1,3-thiazol-4-yl)benzenesulfonamide TS dispersion for oral administration, and placebo, were investigated for 14 days, as follows: • healthy subjects, 300 mg twice daily (BID,) • healthy subjects, 450 mg BID, and • elderly subjects, 300 mg BID.
# (§3) Subjects were fasted overnight prior to the morning doses and for at least 2 hours prior to the evening doses. Food was withheld for at least 2 hours postdose.
# A total of 49 subjects were enrolled in the study of which 39 received 4-[2-(5-amino-1H-pyrazol-4-yl)-4-chlorophenoxy]-5-chloro-2-fluoro-N-(1,3-thiazol-4-yl)benzenesulfonamide TS and 10 received placebo.
# [6] = system: uric acid in urine; assay: Multiple dose study (TS, 14 days): fraction of uric acid excreted in urine; type: in vivo, human; settings: urine
# Experimental: as §2, §3
# Uric acid was also measured in urine collected over 24 hours prior to dosing on Day 1, and then on Days 6, 14 and 16. The percent excreted fraction of uric acid in urine was calculated and analyzed with a linear mixed effects model.
# [7] = TS oral 300 mg BID, elderly subjects, day 6
# [8] = TS oral 300 mg BID, elderly subjects, day 14
# [9] = TS oral 300 mg BID, healthy subjects, day 6
# [10] = TS oral 300 mg BID, healthy subjects, day 14
# [11] = TS oral 450 mg BID, healthy subjects, day 6
# [12] = TS oral 450 mg BID, healthy subjects, day 14
structure (smiles),measurement,setting,value
"Cc1ccc(S(=O)(=O)O)cc1.Nc1[nH]ncc1-c1cc(Cl)ccc1Oc1cc(F)c(S(=O)(=O)Nc2cscn2)cc1Cl [TS, 4-[2-(5-amino-1H-pyrazol-4-yl)-4-chlorophenoxy]-5-chloro-2-fluoro-N-(1,3-thiazol-4-yl)benzenesulfonamide tosylate]",Mean uric acid,"[1]; TS oral single dose 200 mg, 0 hours",5.92 mg/dL
same,Mean uric acid,"[1]; TS oral single dose 200 mg, 48 hours",5.43 mg/dL
same,Mean uric acid,"[1]; TS oral single dose 600 mg, 0 hours",6.21 mg/dL
same,Mean uric acid,"[1]; TS oral single dose 600 mg, 48 hours",5.04 mg/dL
same,Mean uric acid,"[1]; TS oral single dose 1000 mg, 0 hours",6.40 mg/dL
same,Mean uric acid,"[1]; TS oral single dose 1000 mg, 48 hours",4.86 mg/dL
same,Fraction excreted of uric acid,"[2]; TS oral 300 mg BID, elderly subjects",13.02%
same,Fraction excreted of uric acid,"[2]; TS oral 300 mg BID, healthy subjects",14.99%
same,Fraction excreted of uric acid,"[2]; TS oral 450 mg BID, healthy subjects",17.09%
same,aqueous solubility,[3],good aqueous solubility
same,solid form stability,"[4]; crystalline form, versus free base",better solid form stability than the free base
same,stability with regard to disassociation,[4]; versus other salts,greater stability with regard to disassociation than other salts
same,chemical stability,"[4]; with regard to formulation and storage, versus free base",improved chemical stability over the free base
same,Mean uric acid,"[5]; TS oral 300 mg BID for 14 days, elderly subjects, day 0",5.43 mg/dL
same,Mean uric acid,"[5]; TS oral 300 mg BID for 14 days, healthy subjects, day 0",5.56 mg/dL
same,Mean uric acid,"[5]; TS oral 300 mg BID, elderly subjects, day 3",3.41 mg/dL
same,Mean uric acid,[5]; [7],2.99 mg/dL
same,Mean uric acid,"[5]; TS oral 300 mg BID, elderly subjects, day 8",3.57 mg/dL
same,Mean uric acid,"[5]; TS oral 300 mg BID, elderly subjects, day 10",3.37 mg/dL
same,Mean uric acid,[5]; [8],3.59 mg/dL
same,Mean uric acid,"[5]; TS oral 300 mg BID, healthy subjects, day 3",3.50 mg/dL
same,Mean uric acid,[5]; [9],3.23 mg/dL
same,Mean uric acid,"[5]; TS oral 300 mg BID, healthy subjects, day 8",3.54 mg/dL
same,Mean uric acid,"[5]; TS oral 300 mg BID, healthy subjects, day 10",3.79 mg/dL
same,Mean uric acid,[5]; [10],3.78 mg/dL
same,Mean uric acid,"[5]; TS oral 450 mg BID for 14 days, healthy subjects, day 0",5.89 mg/dL
same,Mean uric acid,"[5]; TS oral 450 mg BID, healthy subjects, day 3",3.05 mg/dL
same,Mean uric acid,[5]; [11],3.00 mg/dL
same,Mean uric acid,"[5]; TS oral 450 mg BID, healthy subjects, day 8",3.21 mg/dL
same,Mean uric acid,"[5]; TS oral 450 mg BID, healthy subjects, day 10",3.45 mg/dL
same,Mean uric acid,[5]; [12],3.56 mg/dL
same,Fraction excreted of uric acid,"[6]; TS oral 300 mg BID, elderly subjects, day 1",6.17%
same,Fraction excreted of uric acid,[6]; [7],13.79%
same,Fraction excreted of uric acid,[6]; [8],7.66%
same,Fraction excreted of uric acid,"[6]; TS oral 300 mg BID, healthy subjects, day 1",8.44%
same,Fraction excreted of uric acid,[6]; [9],17.41%
same,Fraction excreted of uric acid,[6]; [10],6.43%
same,Fraction excreted of uric acid,"[6]; TS oral 450 mg BID, healthy subjects, day 1",8.61%
same,Fraction excreted of uric acid,[6]; [11],19.81%
same,Fraction excreted of uric acid,[6]; [12],7.69%
